Test results: patent US11274084B2, “3-aryl-4-amido-bicyclic [4,5,0] hydroxamic acids as HDAC inhibitors” (Valo Health, Inc., priority 2015, dated 2022)

These compounds were tested against T1, HDAC6 (Homo sapiens, UniProt Q9UBN7) (assay: In vitro histone deacetylase assay: enzymatic HDAC6 assay by electrophoretic mobility shift). Conditions: full length human recombinant HDAC6 1 nM, 2 μM peptide substrate RHKK(Ac)-NH2, 25° C., 12 concentrations; read-out: Inhibitory Concentration (IC50) against HDAC6, Activity Range.
T1 construct: Full length human recombinant HDAC6 protein; made in house
T1 sequence (Q9UBN7 1-1215): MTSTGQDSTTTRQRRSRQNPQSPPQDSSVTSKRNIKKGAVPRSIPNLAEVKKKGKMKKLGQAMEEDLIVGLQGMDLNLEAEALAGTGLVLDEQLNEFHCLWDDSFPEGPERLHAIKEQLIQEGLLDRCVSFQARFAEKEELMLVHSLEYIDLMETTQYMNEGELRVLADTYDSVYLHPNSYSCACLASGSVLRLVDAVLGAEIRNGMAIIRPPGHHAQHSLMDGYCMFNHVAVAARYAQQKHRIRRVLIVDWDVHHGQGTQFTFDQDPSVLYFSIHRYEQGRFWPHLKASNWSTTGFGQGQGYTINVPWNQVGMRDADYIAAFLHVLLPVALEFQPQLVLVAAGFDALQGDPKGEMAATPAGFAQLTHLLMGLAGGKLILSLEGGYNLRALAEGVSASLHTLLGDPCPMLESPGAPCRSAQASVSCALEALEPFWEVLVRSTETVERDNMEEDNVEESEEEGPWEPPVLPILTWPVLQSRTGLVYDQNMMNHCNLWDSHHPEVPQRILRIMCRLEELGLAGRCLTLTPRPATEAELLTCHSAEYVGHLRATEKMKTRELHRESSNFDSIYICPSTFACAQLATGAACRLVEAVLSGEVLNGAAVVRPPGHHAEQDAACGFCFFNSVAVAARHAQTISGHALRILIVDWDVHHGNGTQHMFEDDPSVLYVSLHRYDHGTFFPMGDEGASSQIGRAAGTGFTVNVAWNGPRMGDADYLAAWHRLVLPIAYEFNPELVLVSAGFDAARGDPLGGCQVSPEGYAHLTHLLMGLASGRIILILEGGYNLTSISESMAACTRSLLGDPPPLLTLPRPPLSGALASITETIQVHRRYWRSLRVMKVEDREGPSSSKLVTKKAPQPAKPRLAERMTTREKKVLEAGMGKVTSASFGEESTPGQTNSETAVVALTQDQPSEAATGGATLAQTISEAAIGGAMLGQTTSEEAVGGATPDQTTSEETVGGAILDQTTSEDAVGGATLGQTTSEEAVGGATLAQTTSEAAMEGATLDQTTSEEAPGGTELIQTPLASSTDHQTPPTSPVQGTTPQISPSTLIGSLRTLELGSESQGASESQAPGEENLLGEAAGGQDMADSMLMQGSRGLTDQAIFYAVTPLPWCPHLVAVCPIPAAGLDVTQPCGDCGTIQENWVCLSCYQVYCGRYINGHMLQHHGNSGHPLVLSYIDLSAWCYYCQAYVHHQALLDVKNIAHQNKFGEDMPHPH
Assay type: biochemical
Procedure: The enzymatic HDAC6 assay was performed using electrophoretic mobility shift assay. […] The enzymatic reactions were assembled in 384-well plates in a total volume of 25 μL of a reaction buffer comprising. 100 mM HEPES, pH 7.5, 25 mM KCl, 0.1% bovine serum albumin, 0.01% Triton X-100, 1% DMSO (from compounds), 2 μM of the fluorescently labeled peptide substrate, and enzyme. The enzyme was added at a final concentration of 1 nM. The peptide substrate RHKK(Ac)-NH2 was used. The compounds were tested at 12 concentrations spaced by 3× dilution intervals. Negative control samples (0%-inhibition in the absence of inhibitor) and positive control samples (100%-inhibition) were assembled in replicates of four in each assay plate. The reactions were incubated at 25° C. and quenched by the addition of 45 μL of termination buffer (100 mM HEPES, pH 7.5, 0.01% Triton X-100, 0.05% SDS).
The terminated assay plates were analyzed on LabChip® 3000 microfluidic electrophoresis instrument (Perkin Elmer/Caliper Life Sciences). The fluorescence intensity of the electrophoretically separated de-acetylated product and substrate peptide was measured. Activity in each sample was determined as the product to sum ratio (PSR):P/(S+P), where P is the peak height of the product peptide and S is the peak height of the substrate peptide. Percent inhibition (Pinh) is determined using the following equation:
Pinh=(PSR0%−PSRinh)/(PSR0%−PSR100%)*100, where PSRinh is the product sum ratio in the presence of inhibitor, PSR0% is the average product sum ration in the absence of inhibitor, and PSR100% is the average product sum ratio in 100%-inhibition control samples. The IC50 values of inhibitors were determined by fitting the %-inhibition curves with 4 parameter dose-response models using XLfit 4 software.

IC50, ≤ 100 nM:
O=C(NO)c1ccc2c(c1)OC[C@H](c1ccc(F)cc1)N(C(=O)C1CCOCC1)C2 [(S)-3-(4-fluorophenyl)-N-hydroxy-4-(tetrahydro-2H-pyran-4-carbonyl)-2,3,4,5-tetrahydrobenzo[f][1,4]oxazepine-8-carboxamide]
CC(=O)N1CCC(C(=O)N2Cc3ccc(C(=O)NO)cc3OC[C@@H]2c2ccccc2)CC1 [(S)-4-(1-acetylpiperidine-4-carbonyl)-N-hydroxy-3-phenyl-2,3,4,5-tetrahydrobenzo[f][1,4]oxazepine-8-carboxamide]
O=C(NO)c1ccc2c(c1)OC[C@H](c1ccccc1)N(C(=O)c1ccc(F)cc1)C2 [(S)-4-(4-fluorobenzoyl)-N-hydroxy-3-phenyl-2,3,4,5-tetrahydrobenzo[f][1,4]oxazepine-8-carboxamide]
O=C(NO)c1ccc2c(c1)OC[C@H](c1ccccc1)N(C(=O)C1(F)CCOCC1)C2 [(S)-4-(4-fluorotetrahydro-2H-pyran-4-carbonyl)-N-hydroxy-3-phenyl-2,3,4,5-tetrahydrobenzo[f][1,4]oxazepine-8-carboxamide]
O=C(NO)c1ccc2c(c1)OC[C@H](c1ccccc1)N(C(=O)C1CCC1)C2 [(S)-4-(cyclobutanecarbonyl)-N-hydroxy-3-phenyl-2,3,4,5-tetrahydrobenzo[f][1,4]oxazepine-8-carboxamide]
O=C(NO)c1ccc2c(c1)OC[C@H](c1ccccc1)N(C(=O)C1CCCCC1)C2 [(S)-4-(cyclohexanecarbonyl)-N-hydroxy-3-phenyl-2,3,4,5-tetrahydrobenzo[f][1,4]oxazepine-8-carboxamide]
O=C(NO)c1ccc2c(c1)OC[C@H](c1ccccc1)N(C(=O)C1CCCC1)C2 [(S)-4-(cyclopentanecarbonyl)-N-hydroxy-3-phenyl-2,3,4,5-tetrahydrobenzo[f][1,4]oxazepine-8-carboxamide]
CC(=O)N1Cc2ccc(C(=O)NO)cc2OC[C@@H]1c1ccccc1 [(S)-4-acetyl-N-hydroxy-3-phenyl-2,3,4,5-tetrahydrobenzo[f][1,4]oxazepine-8-carboxamide]
O=C(NO)c1ccc2c(c1)OC[C@H](c1ccccc1)N(C(=O)C1CCOCC1)C2 [(S)-N-hydroxy-3-phenyl-4-(tetrahydro-2H-pyran-4-carbonyl)-2,3,4,5-tetrahydrobenzo[f][1,4]oxazepine-8-carboxamide]
O=C(NO)c1ccc2c(c1)OC[C@H](c1ccccc1)N(C(=O)c1ccccn1)C2 [(S)-N-hydroxy-3-phenyl-4-picolinoyl-2,3,4,5-tetrahydrobenzo[f][1,4]oxazepine-8-carboxamide]
CC(C)(C)C(=O)N1Cc2ccc(C(=O)NO)cc2OC[C@@H]1c1ccccc1 [(S)-N-hydroxy-3-phenyl-4-pivaloyl-2,3,4,5-tetrahydrobenzo[f][1,4]oxazepine-8-carboxamide]
COC1(C(=O)N2Cc3ccc(C(=O)NO)cc3OC[C@@H]2c2ccccc2)CCCCC1 [(S)-N-hydroxy-4-(1-methoxycyclohexane-1-carbonyl)-3-phenyl-2,3,4,5-tetrahydrobenzo[f][1,4]oxazepine-8-carboxamide]
COC1(C(=O)N2Cc3ccc(C(=O)NO)cc3OC[C@@H]2c2ccccc2)CC1 [(S)-N-hydroxy-4-(1-methoxycyclopropane-1-carbonyl)-3-phenyl-2,3,4,5-tetrahydrobenzo[f][1,4]oxazepine-8-carboxamide]
CN1CCC(C(=O)N2Cc3ccc(C(=O)NO)cc3OC[C@@H]2c2ccccc2)CC1 [(S)-N-hydroxy-4-(1-methylpiperidine-4-carbonyl)-3-phenyl-2,3,4,5-tetrahydrobenzo[f][1,4]oxazepine-8-carboxamide]
COC(C)(C)C(=O)N1Cc2ccc(C(=O)NO)cc2OC[C@@H]1c1ccccc1 [(S)-N-hydroxy-4-(2-methoxy-2-methylpropanoyl)-3-phenyl-2,3,4,5-tetrahydrobenzo[f][1,4]oxazepine-8-carboxamide]
CC1(C(=O)N2Cc3ccc(C(=O)NO)cc3OC[C@@H]2c2ccccc2)CCOCC1 [(S)-N-hydroxy-4-(4-methyltetrahydro-2H-pyran-4-carbonyl)-3-phenyl-2,3,4,5-tetrahydrobenzo[f][1,4]oxazepine-8-carboxamide]
CO[C@H]1CC[C@H](C(=O)N2Cc3ccc(C(=O)NO)cc3OC[C@@H]2c2ccccc2)CC1 [(S)-N-hydroxy-4-((1r,4S)-4-methoxycyclohexane-1-carbonyl)-3-phenyl-2,3,4,5-tetrahydrobenzo[f][1,4]oxazepine-8-carboxamide]
CO[C@H]1CC[C@@H](C(=O)N2Cc3ccc(C(=O)NO)cc3OC[C@@H]2c2ccccc2)CC1 [(S)-N-hydroxy-4-((1s,4R)-4-methoxycyclohexane-1-carbonyl)-3-phenyl-2,3,4,5-tetrahydrobenzo[f][1,4]oxazepine-8-carboxamide]
O=C(NO)c1ccc2c(c1)OC[C@H](c1ccccc1)N(C(=O)C1COC1)C2 [(S)-N-hydroxy-4-(oxetane-3-carbonyl)-3-phenyl-2,3,4,5-tetrahydrobenzo[f][1,4]oxazepine-8-carboxamide]
O=C(NO)c1ccc2c(c1)OC[C@H](c1ccc(C(F)(F)F)cc1)N(C(=O)C1CCOCC1)C2 [(S)-N-hydroxy-4-(tetrahydro-2H-pyran-4-carbonyl)-3-(4-(trifluoromethyl)phenyl)-2,3,4,5-tetrahydrobenzo[f][1,4]oxazepine-8-carboxamide]
Cc1ccccc1[C@H]1COc2cc(C(=O)NO)ccc2CN1C(=O)C1CCOCC1 [(S)-N-hydroxy-4-(tetrahydro-2H-pyran-4-carbonyl)-3-(o-tolyl)-2,3,4,5-tetrahydrobenzo[f][1,4]oxazepine-8-carboxamide]
Cc1ccc([C@H]2COc3cc(C(=O)NO)ccc3CN2C(=O)C2CCOCC2)cc1 [(S)-N-hydroxy-4-(tetrahydro-2H-pyran-4-carbonyl)-3-(p-tolyl)-2,3,4,5-tetrahydrobenzo[f][1,4]oxazepine-8-carboxamide]
CC(C)C(=O)N1Cc2ccc(C(=O)NO)cc2OC[C@@H]1c1ccccc1 [(S)-N-hydroxy-4-isobutyryl-3-phenyl-2,3,4,5-tetrahydrobenzo[f][1,4]oxazepine-8-carboxamide]
O=C(NO)c1ccc2c(c1)OC[C@H](c1ccccc1)N(C(=O)c1ccncc1)C2 [(S)-N-hydroxy-4-isonicotinoyl-3-phenyl-2,3,4,5-tetrahydrobenzo[f][1,4]oxazepine-8-carboxamide]
O=C(NO)c1ccc2c(c1)OC[C@H](c1ccccc1)N(C(=O)c1cccnc1)C2 [(S)-N-hydroxy-4-nicotinoyl-3-phenyl-2,3,4,5-tetrahydrobenzo[f][1,4]oxazepine-8-carboxamide]
